Test results: patent US11285158B2, “Uses of pyrimidopyrimidinones as SIK inhibitors” (The General Hospital Corporation, priority 2017, dated 2022)
pEC50: −log10 of the molar value.

Legend:
B16 cells = assay: In vitro MITF induction in B16 cells; type: cell-based, mouse; details: for maximal fold induction / pEC50: Mus musculus, Table 5; for maximal fold induction: B16 cells, read-out: Highest fold mitf induction in B16 cells; for Highest fold Mitf induction: Table 6, cells not given, same values as Table 5 (B16 cells); for pEC50: readout not given, presumably mitf induction in B16 cells
Description: qPCR. mRNA was extracted from cells using the RNeasy Mini Kit (Qiagen®). KAPA SYBR® FAST Universal One-Step qRT-PCR Kit (KAPA BIOSYSTEMS®) was used to prepare mRNA samples for qPCR and samples were analyzed using the 7500 Fast Real Time PCR System (Applied Biosystems®). The relative expression of each gene was calculated by 7500 Fast System Software program, which utilizes Ct normalized to mRNA levels of RPL11 to calculate relative expression. Results are reported relative to control cells.
Tables 2 to 5 below show the effects of exemplary […] compounds on skin darkening, including an in vitro test of MITF induction following the same protocol as described above in paragraph 333, wherein exemplary SIK inhibitor compounds were tested for their in vitro induction of MITF.
Table 5 below additionally provides characteristics of exemplary SIK inhibitor compounds, MITF induction in B16 cells, EC50, log P, and experimental conditions for skin darkening experiments in mice and humans.

[1] = system: human breast skin explants; assay: Human skin explants: darkening/pigmentation after topical SIK inhibitor; type: cell-based; details: Human Skin Explants
Description: Image and Colorimeter analysis were conducted 24 hours after the last treatment.
Human pigmentation experiments. Full thickness human breast skin explants were cultured in petri dishes with a solid phase and liquid phase phenol red free DMEM medium with […], 5% fungizone (Gibco®), and 10% FBS. Passive application refers to simply applying the treatment to skin without further rubbing or manipulation. Mechanical application refers to application of agents to skin with further rubbing of treatment with 10 clockwise turns of a gloved cotton swab applicator. Skin was harvested, fixed, and processed for paraffin embedding. Sections were cut from paraffin blocks, and sections were stained utilizing hematoxylin and eosin (morphology) and Fontana-Masson (melanin).

[2] = Table 2, passive topical application

Row | Compound | pEC50 (B16 cells) | maximal fold induction (B16 cells) | further results
1 | Cc1cccc(C)c1NC(=O)N1C/C=C\COc2cccc(c2)Nc2cc1ncn2 [HG-10-32-01] |  | 2.4 | Highest fold Mitf induction (B16 cells): 2.4 fold
2 | CN1CCN(c2ccc(Nc3ncc4c(n3)N(C)C(=O)N(c3ccccc3)C4)cc2)CC1 [HG-11-137-01] |  | 4.82 | Results (skin darkening) ([1]; Table 3): Darkens; Highest fold Mitf induction (B16 cells): 4.82 fold
3 | COc1cc(N2CCN(C)CC2)ccc1Nc1ncc2c(n1)N(C)C(=O)N(c1ccccc1)C2 [HG-11-139-02] |  | 5.76 | Highest fold Mitf induction (B16 cells): 5.76 fold
4 | COc1ccc(N2C(=O)N(c3c(C)cccc3C)Cc3cnc(Nc4cc(N5CCOCC5)cc(N5CCN(C)CC5)c4)nc32)c(OC)c1 [HG-11-143-01] | 7.24 | 6.8 | 
5 | CCN1CCN(Cc2ccc(Nc3ncc4c(n3)N(c3ccc(OC)cc3OC)C(=O)N(c3c(C)cccc3C)C4)cc2C(F)(F)F)CC1 [YKL-04-103] | 9.00 | 10.2 | 
6 | COc1ccc(N2C(=O)N(c3c(C)cccc3C)Cc3cnc(Nc4ccc(N5CCOCC5)c(C(F)(F)F)c4)nc32)c(OC)c1 [YKL-04-104] | 7.68 | 8 | 
7 | COc1ccc(N2C(=O)N(c3c(C)cccc3C)Cc3cnc(Nc4cnn(C5CCOCC5)c4)nc32)c(OC)c1 [YKL-04-105] | 8.30 | 9.9 | 
8 | COc1ccc(N2C(=O)N(c3c(C)cccc3C)Cc3cnc(Nc4cccc(OCCN5CCOCC5)c4)nc32)c(OC)c1 [YKL-04-106] | 7.13 | 9 | 
9 | COc1ccc(N2C(=O)N(c3c(C)cccc3C)Cc3cnc(Nc4cc(C)c(OCCN5CCOCC5)c(C)c4)nc32)c(OC)c1 [YKL-04-107] | 7.82 | 3.6 | 
10 | COc1ccc(N2C(=O)N(c3c(C)cccc3C)Cc3cnc(Nc4ccc(CCCN5CCOCC5)cc4)nc32)c(OC)c1 [YKL-04-108] | 7.85 | 13.9 | Results (skin darkening) ([1]; Table 3): Darkens
11 | COc1ccc(N2C(=O)N(c3c(C)cccc3C)Cc3cnc(Nc4cc(N5CCN(C)CC5)cc(C(F)(F)F)c4)nc32)c(OC)c1 [YKL-04-112] | 6.67 | 5.2 | 
12 | COc1ccc(N2C(=O)N(c3c(C)cccc3C)Cc3cnc(Nc4ccc(CN5CCN(C)CC5)cc4)nc32)nc1 [YKL-04-136-10] |  | 16.3 | Highest fold Mitf induction (B16 cells): 16.28 fold
13 | COc1cc(N2CCN(C(C)=O)CC2)ccc1N1C(=O)N(c2c(C)cccc2C)Cc2cnc(Nc3ccc(CN4CCN(C)CC4)cc3)nc21 [YKL-04-136-11] |  | 9.58 | Highest fold Mitf induction (B16 cells): 9.58 fold
14 | Cc1cccc(C)c1N1Cc2cnc3nc2N(C/C=C/COCc2cccc(c2)N3)C1=O [YKL-05-200-2] |  |  | Results (skin darkening) [1, 2]: Darkens; Results (skin darkening) ([1]; Table 4): Darkens
15 | Cc1cccc(Cl)c1N1Cc2cnc3nc2N(C/C=C\CCOc2cccc(c2)N3)C1=O [YKL-05-201-1] |  |  | Results (skin darkening) [1, 2]: Darkens; Results (skin darkening) ([1]; Table 4): Darkens
16 | Cc1cccc(C)c1N1Cc2cnc3nc2N(C/C=C\COc2cc(ccc2N2CCN(C)CC2)N3)C1=O [YKL-05-204-1] |  |  | Results (skin darkening) [1, 2]: Darkens; Results (skin darkening) ([1]; Table 4): Darkens
17 | Cc1cccc(C)c1N1Cc2cnc3nc2N(C/C=C/COc2cc(ccc2N2CCN(C)CC2)N3)C1=O [YKL-05-204-2] |  |  | Results (skin darkening) [1, 2]: Darkens; Results (skin darkening) ([1]; Table 4): Darkens
18 | Cc1cccc(C)c1N1Cc2cnc(Nc3ccc(N4CCN(C)CC4)cc3)nc2N(C)C1=O [YKL-06-29] |  |  | Results (skin darkening) [1, 2]: Darkens; Results (skin darkening) ([1]; Table 4): Darkens
19 | Cc1cccc(C)c1N1Cc2cnc(Nc3ccc(N4CCN(C)CC4)cc3)nc2N(C(C)C)C1=O [YKL-06-058] |  |  | Results (skin darkening) [1, 2]: Darkens; Results (skin darkening) ([1]; Table 4): Darkens
20 | Cc1cccc(C)c1N1Cc2cnc(Nc3ccc(N4CCN(C)CC4)cc3)nc2N(C2CCC2)C1=O [YKL-06-060] |  |  | Results (skin darkening) [1, 2]: Darkens; Results (skin darkening) ([1]; Table 4): Darkens

Further lines, with some results ahead:

Row | pEC50 (B16 cells) | Compound | maximal fold induction (B16 cells) | further results
21 | 6.18 | COc1ccc(N2C(=O)N(c3c(C)cccc3C)Cc3cnc(Nc4cc(N5CCOCC5)cc(C(F)(F)F)c4)nc32)c(OC)c1 [YKL-04-113] | 11.2 | 
22 | 7.17 | COc1ccc(N2C(=O)N(c3c(C)cccc3C)Cc3cnc(Nc4ccc(N5CCN(C)CC5)c(OC)c4)nc32)c(OC)c1 [YKL-04-114] | 10.4 | 
23 | 7.62 | COc1ccc(N2C(=O)N(c3c(C)cccc3C)Cc3cnc(Nc4ccc(N5CCOCC5)c(OC)c4)nc32)c(OC)c1 [YKL-04-115] | 10.1 | 
24 | 2.85 | COc1ccc(N2C(=O)N(c3c(C)cccc3C)Cc3cnc(Nc4cc(CN5CCOCC5)cc(C(F)(F)F)c4)nc32)c(OC)c1 [YKL-04-118] | 1.1 | 
25 | 6.88 | COc1ccc(N2C(=O)N(c3c(C)cccc3C)Cc3cnc(Nc4cc(CN5CCN(C)CC5)cc(C(F)(F)F)c4)nc32)c(OC)c1 [YKL-04-125] | 9.7 | 
26 | 7.28 | COc1ccc(N2C(=O)N(c3c(C)cccc3C)Cc3cnc(Nc4ccc(CN5CCN(C)CC5)cc4)nc32)c(OC)c1 [YKL-04-136-01] | 9.7 | 
27 | 7.68 | COc1ccc(N2C(=O)N(c3c(C)cccc3C)Cc3cnc(Nc4cnn(CCN(C)C)c4)nc32)c(OC)c1 [YKL-04-136-02] | 16.1 | 
28 | 7.60 | COc1ccc(N2C(=O)N(c3c(C)cccc3Cl)Cc3cnc(Nc4ccc(N5CCN(C)CC5)cc4)nc32)c(OC)c1 [YKL-04-136-03] | 6.2 | 
29 | 7.82 | COc1ccc(N2C(=O)N(c3c(C)cccc3Cl)Cc3cnc(Nc4cnn(CCN(C)C)c4)nc32)c(OC)c1 [YKL-04-136-04] | 9.2 | 
30 | 7.38 | COc1cc(N2CCN(C(C)=O)CC2)ccc1N1C(=O)N(c2c(C)cccc2C)Cc2cnc(Nc3ccc(N4CCN(C)CC4)cc3)nc21 [YKL-04-136-05] | 8.9 | 
31 | 8.05 | COc1ccc(N2C(=O)N(c3c(C)cccc3C)Cc3cnc(Nc4ccc(N5CCN(C)CC5)cc4)nc32)nc1 [YKL-04-136-06] | 26.9 | 
32 | 6.90 | COc1cc(N2CCN(C(C)=O)CC2)ccc1N1C(=O)N(c2c(C)cccc2C)Cc2cnc(Nc3cnn(CCN(C)C)c3)nc21 [YKL-04-136-07] | 2.4 | 
33 | 7.85 | COc1ccc(N2C(=O)N(c3c(C)cccc3C)Cc3cnc(Nc4cnn(CCN(C)C)c4)nc32)nc1 [YKL-04-136-08] | 4.1 | 
